Key:
[1] = target: T1, human platelet PLA2 (Homo sapiens, UniProt P14555); test: PLA2 Inhibition Assay (14C-oleate labeled E. coli membrane substrate); type: biochemical; settings: preincubation 7 min, incubation 30 min, 37° C., pH 7; unit inferred; read-out: IC50 for inhibition of human platelet phospholipase A2
T1 construct: The enzyme was isolated from human platelets; from tissue; host or cells: human platelets
T1 sequence (P14555 21-144): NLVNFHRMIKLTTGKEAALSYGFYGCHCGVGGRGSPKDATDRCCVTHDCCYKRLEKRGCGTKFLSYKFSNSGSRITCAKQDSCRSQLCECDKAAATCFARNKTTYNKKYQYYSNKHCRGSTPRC
Method: This assay is used to measure the inhibition of human platelet PLA2 by test compounds. The method used was similar to that reported by Franson et al. [Jesse RL and Franson RC, Biochem Biophys Acta, 575, 467-470 (1979)]. [Franson RC, Patriarca P and Elsback P, J Lipid Res 15, 380-388 (1974)]. The enzyme was isolated from human platelets. The substrate used consisted of ^14 C-oleate labeled E. coli membranes. E. Coli cells were grown in the presence of ^14 C-oleic acid and then autoclaved to prepare membranes. In the assay, various concentrations of test compounds are preincubated with PLA2 (7.5 μg/ml) in a buffer consisting of 25 mM HEPES (pH 7) 150 mM NaCl, 5.0 mM Cacl2, and 10% DMSO (test compound solvent) at 37° C. for 7 minutes. The E. coli membrane substrate is then added (0.1 mM phospholipid, 0.5 μCi/umol) and the reaction is incubated at 37° C. for 30 minutes. The final reaction volume is 0.1 ml. The reaction is quenched with tetrahydrofuran (1.9 ml), and the entire solution is applied to a solid-phase extraction column (aminopropylresin, Analytichem). […] The amount of free fatty acid product is determined by liquid scintillation counting. The amount of inhibition produced by the test compound is calculated by comparing the number of counts obtained in the presence of the compound to that obtained for the control reactions (test compound solvent only). […]

[2] = test system: TPA-induced mouse ear edema; test: Phorbol ester (TPA)-induced mouse ear inflammation assay: edema (ear weight); type: in vivo, CD-1 mice; settings: topical, six hours
Method: (§1) Anti-inflammatory activity of the test compounds was determined in the phorbol ester-induced mouse ear inflammation model. [Young J M, Wagner B M and Spires D A, J Invest Dermatol, 80, 48-52 (1983)]. In this assay, an inflammatory reaction is induced by the topical application of 0.01% (w/v) tetradecanoylphorbol-13-acetate (TPA) to the ears of CD-1 mice. An acute inflammatory reaction results in which the ears swell and inflammatory cells infiltrate the ear tissue. TPA, with and without various concentrations of test compound, was applied to the inner and outer aspects of the ears (10 μl/surface). After six hours, the mice were sacrificed and the ears were removed. Ear tissue punches (5/16") were taken from each ear and weighed to measure edema. The ear punches were then processed for the determination of neutrophil accumulation by measurement of myeloperoxidase (MPO) activity by the method of Bradley et al. [Bradley P P et al, J Invest Dermatol, 78, 206-209 (1982)]. MPO is a specific marker for the presence of neutrophils in tissue.
(§2) The anti-inflammatory activity produced by the test compound is calculated by comparing the edema or MPO values obtained for the drug-treated ears to those obtained for non-drug treated ears. Percent inhibition values were determined by the equation: [formula] […] The ED50 is estimated to be 0.8%.

[3] = test system: myeloperoxidase (MPO) activity; test: Phorbol ester (TPA)-induced mouse ear inflammation assay: cell infiltration (neutrophil accumulation by myeloperoxidase activity); type: in vivo, CD-1 mice; settings: topical, six hours
Method: as §1, §2

Row | Compound | IC50 [1] [µM] | Blocking of TPA-induced mouse ear edema (in words) [2] | ED50, TPA-induced mouse ear edema ([2]; with TPA 0.01% (w/v)) [%] | Blocking of edema and cell infiltration (in words) ([3]; statement covers edema and cell infiltration) | ED50, inhibition of cell infiltration ([3]; with TPA 0.01% (w/v), MPO activity) [%]
1 | CC1=C(/C=C/C(C)=C/C=C/C(C)=C/C(=O)O)C(C)(C)CCC1 [reference compound] | > 500 |  |  |  | 
2 | CC1=C(/C=C/C(C)=C/C=C(/C(C)=C\C(=O)O)c2cccc(C(=O)O)c2)C(C)(C)CCC1 [Compound I, 13-CIS-12-(3'-CARBOXYPHENYL)RETINOIC ACID] | 40 | dose-dependently blocks TPA-induced mouse ear edema | ~0.8 | effectively blocks edema and cell infiltration | < 0.1

Source: patent US5141959A, “Isoprenoid phospholipase A2 inhibitors and preparations comprising same” (Bristol-Myers Squibb Company, priority 1990, dated 1992)
